{"source": "patent US8822429B2", "about": "“Citicoline for the treatment of glaucoma and ocular hypertension” (Omikron Italia S.r.l., priority 2010, dated 2014)", "origin": "cited, not measured here", "conditions": "taken orally"}
{"smiles": "C[N+](C)(C)CCOP(=O)(O)OP(=O)([O-])OC[C@H]1O[C@@H](n2ccc(N)nc2=O)[C@H](O)[C@@H]1O", "note": "[Citicoline, cytidine-5′-diphosphocholine]", "values": [{"measurement": "excreted in the feces", "value": "less than 1%"}, {"measurement": "time of plasma peak after ingestion", "setting": "first peak", "value": 1, "unit": "h"}, {"measurement": "time of second, larger plasma peak", "setting": "larger peak following the first", "value": 24, "unit": "h"}]}
